Experimental findings from paper PMC12144893, “Synthesis and Characterization of Photoswitchable Covalent Ligands for the β2‐Adrenoceptor” (Angewandte Chemie (International Ed. in English), 2025) are described below.

Like-named read-outs stand apart in the source and are kept apart here.

One series deals with T1, human β2AR (Homo sapiens, UniProt P07550).
T1 construct: host or cells: HEK-293T
Format: cell-based.

A short description of series [1]: UV/Vis spectra of E- and Z-isomers in Tris buffer. Format: physicochemical. The conditions noted are these: for λmax (E): E-isomer, Tris buffer 50 mM Tris, 1 mM EDTA, 1 mM MgCl2; for λmax (Z): Z-isomer, Tris buffer. On the procedure:
1.4. Photophysical Characterization
1.4.1. UV/Vis Spectra and Cycle Performance
UV/Vis absorption spectra were measured to characterize the photophysical properties of the synthesized pho to switches. The pho to switches were diluted with TRIS buffer (50 m M Tris, 1 m M EDTA, 1 mM MgCl2, pH 7.4) to end up with a concentration of 10 µM + 0.5% DMSO. The spectra were measured in a quartz glass cuvette after different illuminations with LED modules. First, the solution was illuminated with 365 nm light for 10 s to switch to the Z -isomer. After measuring the UV/Vis spectrum of the Z-isomer (purple curve), the solution was illuminated with 528 nm light for 120 s and the spectrum for the E -isomer (black curve) was measured. This cycle was repeated ten times to show the stability and repeatability of switching the compound. The isosbestic points could be determined from an overlay of the UV/Vis spectra of both isomers.
(§1) Wavelength λ [nm] Cycle Number
Figure S10. UV/Vis spectr um and cycle performance of 1.
Figure S11. UV/Vis spectr um and cycle performance of 2.
(also on this page, place not known: photoswitches. photoswitches mM mM MgCl 2, 0.5 % E-isomer coul d spectrum spectrum 600 0,15Absorbance 0 Absorbance 340 nm 600 0,18Absorbance 0 Absorbance 335 nm)

Series [2] is described as follows: Photostationary states by analytical HPLC at isosbestic points. Format: physicochemical. The conditions noted are these: single experiment; for PSS (E → Z): irradiation with 365 nm; for PSS (Z → E): irradiation with 528 nm. Here is the method:
as §1
Figure S18. UV/Vis spectr um and cycle performance of 7.
1.4.2. Photostationary States
Photostationary states (PSS) were measured on analytical HPLC. To determine the photostationary state of the photoswitches the samples (0.2 mM in Tris buffer + 2% DMSO) were irradiated first with 3 65 nm to get the Z -isomer (Peak 1). Afterwards, the sample was irradiated with 528 nm to get back to the E-isomer (Peak 2). The samples were measured at the isosbestic points.
Figure S19. Photostationary state of 1 after irradiation with 365 nm (switching to the Z - isomer).
Figure S20. Photostationary state of 1 after irradiation with 528 nm (switching to the E -isomer). […]

Series [3] can be described thus: Thermal half-life of the metastable Z isomer. It counts as physicochemical. The conditions noted are these: Tris buffer + 0.5% DMSO. On the procedure: Figure S36. Photostationary state of 9 after irradiation with 528 nm (switching to the E -isomer).
1.4.3. Thermal Half-lives
For the determination of the thermal stability of the metastable Z isomer a 50 µM solution in Tris buffer
+ 0.5% DMSO was irradiated with 365 nm. For 4 weeks the absorption at 335 nm was measured every
ExpDec1 Fit of Sheet1 B 0,35 ExpDec1 Fit of Sheet1 B
Modell ExpDec1 Modell ExpDec1
Gle i c hung y = A 1 *e xp (-x/t1 ) + y0 Gle i c hung y = A 1 *e xp (-x/t1 ) + y0
Ze i c hne n B Ze i c hne n B
(also on this page, place not known: E-isomer). 0,45absorption 335 nm Gleichung A1*exp(-x/t1) Zeichnen (COD) 0,50absorption 335 nm Gleichung A1*exp(-x/t1) Zeichnen (COD)) […]

The mark [4] stands for this setting: E-isomer, β2AR wild type, mean ± S.E.M.
The mark [5] stands for this setting: HEK-293T, E-isomer, β2AR wild type, relative to maximum effect of norepinephrine, read-out: Emax.
Where [6] appears, read: HEK-293T, Z-isomer, β2AR wild type, relative to maximum effect of norepinephrine, read-out: Emax.
Setting [7] is: Z-isomer, β2AR wild type, mean ± S.E.M.
Where [8] appears, read: HEK-293T, reference agonists, β2AR wild-type, relative to norepinephrine, read-out: Emax.

T1 sequence (P07550 whole entry): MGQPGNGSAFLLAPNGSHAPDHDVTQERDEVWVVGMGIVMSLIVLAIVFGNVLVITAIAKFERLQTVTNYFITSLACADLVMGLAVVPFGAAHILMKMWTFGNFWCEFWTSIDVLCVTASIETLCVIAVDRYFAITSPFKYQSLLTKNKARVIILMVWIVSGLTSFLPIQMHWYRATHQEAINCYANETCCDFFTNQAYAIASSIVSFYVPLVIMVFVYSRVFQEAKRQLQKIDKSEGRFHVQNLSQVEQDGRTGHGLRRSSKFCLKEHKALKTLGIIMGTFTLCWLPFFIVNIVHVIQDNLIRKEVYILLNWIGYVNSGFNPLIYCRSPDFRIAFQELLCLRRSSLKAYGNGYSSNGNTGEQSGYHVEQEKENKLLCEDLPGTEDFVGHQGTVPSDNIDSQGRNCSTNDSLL

Take `Cc1nn(CCSSCCN(C)C)c(C)c1/N=N/c1ccc(CCNC[C@H](O)c2ccc(O)c(O)c2)cc1` [Compound 1, (R,E)-4-(2-((4-((1-(2-((2-(Dimethylamino)ethyl)disulfaneyl)ethyl)-3,5-dimethyl-1H-pyrazol-4-yl)diazenyl)phenethyl)amino)-1-hydroxyethyl)benzene-1,2-diol]: on human β2AR (setting [4]), the EC50 worked out at 630 ± 72 nM. In addition, the Emax on human β2AR (setting [5]) was determined as 108 ± 3%. Further, the Emax on human β2AR (setting [6]) is 78 ± 1%. Further, the EC50 on human β2AR (setting [7]) was found to be 480 ± 110 nM. In addition, in series [1], the “λmax (E)” value amounted to 335 nm and the “λmax (Z)” value is reported as 435 nm. For the same molecule, in series [2], the “PSS (E → Z)” value turned out to be 89% and the “PSS (Z → E)” value was 90%. In addition, in series [3], the t1/2 amounted to 3.9 days.

At human β2AR (E-isomer, β2AR wild type, relative to maximum effect of norepinephrine), `Cc1nn(CCCCCSSCCN)c(C)c1/N=N/c1ccc(CCNCC(O)c2ccc(O)c3c2OCC(=O)N3)cc1` (racemic) [Compound E-6] registered an Emax of 70%.

Consider `Cc1nn(CCN2C(=O)C=CC2=O)c(C)c1/N=N/c1ccc(CCNC[C@H](O)c2ccc(O)c(O)c2)cc1` [Compound 7], for which a half-maximal response at human β2AR (setting [4]) (EC50) required 1500 nM. On human β2AR (setting [5]), the Emax came out at 103 ± 4%. The Emax at human β2AR (setting [6]) is 101 ± 10%. The molecule also displayed an EC50 at human β2AR (setting [7]) of 4300 nM. Besides, in series [1], the “λmax (E)” value is recorded as 335 nm and the “λmax (Z)” value came out at 433 nm. Moreover, in series [2], the “PSS (E → Z)” value was found to be 92% and the “PSS (Z → E)” value worked out at 85%. The t1/2 in series [3] was 4.5 days.

At human β2AR (setting [4]), `Cc1nn(CCSSCCN)c(C)c1/N=N/c1ccc(CCNCC(O)c2ccc(O)c3c2OCC(=O)N3)cc1` (centres unmarked) [Compound E-3] showed an EC50 of 7.2 nM. This lies in the single-digit nanomolar range.

On human β2AR (setting [4]), `Cc1nn(CCCCSSCCN)c(C)c1/N=N/c1ccc(CCNCC(O)c2ccc(O)c3c2OCC(=O)N3)cc1` (racemic) [Compound E-5] came in with an EC50 of 79 nM.

Molecule `Cc1nn(CCCCCSSCCN)c(C)c1/N=N/c1ccc(CCNCC(O)c2ccc(O)c3c2OCC(=O)N3)cc1` (centres unmarked) [Compound 6] had an EC50 on human β2AR (setting [4]) of 38 ± 5.8 nM. For the same molecule, the Emax on human β2AR (setting [5]) worked out at 70 ± 2%. The Emax at human β2AR (setting [6]) turned out to be 89 ± 1%. For the same molecule, the EC50 on human β2AR (setting [7]) was determined as 21 ± 1.3 nM. In series [1], the “λmax (E)” value turned out to be 340 nm and the “λmax (Z)” value stood at 435 nm. Besides, in series [2], the “PSS (E → Z)” value is recorded as 95% and the “PSS (Z → E)” value is recorded as 93%. In series [3], the t1/2 is 13.3 days.

Take `Cc1nn(CCCCCSSCCN)c(C)c1/N=N\c1ccc(CCNCC(O)c2ccc(O)c3c2OCC(=O)N3)cc1` (racemic) [Compound Z-6]: the Emax on human β2AR (Z-isomer, β2AR wild type, relative to maximum effect of norepinephrine) came to 85%.

Take `CNC[C@H](O)c1ccc(O)c(O)c1` [epinephrine, reference compound]: the Emax on human β2AR (setting [8]) was 103%.

In turn, `Cc1nn(CCSSCCN(C)C)c(C)c1/N=N\c1ccc(CCNC[C@H](O)c2ccc(O)c(O)c2)cc1` [Compound Z-1] gave an EC50 at human β2AR (Z-isomer, β2AR wild type) of 480 nM.

In turn, `Cc1nn(CCCCSSCCN)c(C)c1/N=N/c1ccc(CCNCC(O)c2ccc(O)c3c2OCC(=O)N3)cc1` (centres unmarked) [Compound 5] showed an EC50 at human β2AR (setting [4]) of 79 ± 25 nM. The Emax at human β2AR (setting [5]) amounted to 98 ± 1%. In addition, the Emax on human β2AR (setting [6]) turned out to be 93 ± 4%. The molecule further yielded an EC50 on human β2AR (setting [7]) of 9.9 ± 1.7 nM. Besides, in series [1], the “λmax (E)” value came out at 338 nm and the “λmax (Z)” value stood at 436 nm. In addition, in series [2], the “PSS (E → Z)” value turned out to be 94% and the “PSS (Z → E)” value was determined as 92%. Moreover, in series [3], the t1/2 came to 16.7 days.

`Cc1nn(CCCSSCCN(C)C)c(C)c1/N=N/c1ccc(CCNC[C@H](O)c2ccc(O)c(O)c2)cc1` [Compound 2] came in with an EC50 at human β2AR (setting [4]) of 940 ± 34 nM. At human β2AR (setting [5]), the Emax was determined as 96 ± 2%. Also, on human β2AR (setting [6]), the Emax is 97 ± 1%. Also, on human β2AR (setting [7]), the EC50 is 700 ± 35 nM. In series [1], the “λmax (E)” value amounted to 335 nm and the “λmax (Z)” value was 433 nm. Also, in series [2], the “PSS (E → Z)” value is listed as 89% and the “PSS (Z → E)” value is 87%. In series [3], the t1/2 worked out at 4.9 days.

Regarding `NC[C@H](O)c1ccc(O)c(O)c1` [norepinephrine, reference compound], at human β2AR (setting [8]), the Emax was 100%.

At human β2AR (setting [4]), `Cc1nn(CCN2C(=O)C=CC2=O)c(C)c1/N=N/c1ccc(CCNCC(O)c2ccc(O)c3c2OCC(=O)N3)cc1` (centres unmarked) [Compound 8] displayed an EC50 of 53 ± 2.6 nM. In addition, the Emax on human β2AR (setting [5]) worked out at 84 ± 5%. In addition, the maximal response (Emax) at human β2AR (setting [6]) stood at 90 ± 2%. The same molecule displayed an EC50 at human β2AR (setting [7]) of 75 ± 2.3 nM. In addition, in series [1], the “λmax (E)” value is reported as 337 nm and the “λmax (Z)” value stood at 435 nm. Further, in series [2], the “PSS (E → Z)” value stood at 95% and the “PSS (Z → E)” value is recorded as 94%. Further, in series [3], the t1/2 was 18.6 days.

Regarding `Cc1nn(CCCN2C(=O)C=CC2=O)c(C)c1/N=N/c1ccc(CCNCC(O)c2ccc(O)c3c2OCC(=O)N3)cc1` (centres unmarked) [Compound 9], at human β2AR (setting [4]), it took 72 ± 12 nM to reach a half-maximal effect (EC50). The Emax at human β2AR (setting [5]) is 88 ± 5%. Further, the Emax at human β2AR (setting [6]) came out at 85 ± 5%. Besides, it took 57 ± 8.5 nM to reach a half-maximal effect on human β2AR (setting [7]) (EC50). In addition, in series [1], the “λmax (E)” value is 339 nm and the “λmax (Z)” value is listed as 435 nm. Besides, in series [2], the “PSS (E → Z)” value is on record as 95% and the “PSS (Z → E)” value came to 93%. For the same molecule, the t1/2 in series [3] stood at 20.4 days.

Molecule `Cc1nn(CCCSSCCN)c(C)c1/N=N/c1ccc(CCNCC(O)c2ccc(O)c3c2OCC(=O)N3)cc1` (centres unmarked) [Compound 4] registered an EC50 at human β2AR (setting [4]) of 39 ± 7 nM. The Emax at human β2AR (setting [5]) turned out to be 88 ± 3%. Moreover, the Emax on human β2AR (setting [6]) is 87 ± 5%. The same molecule gave an EC50 on human β2AR (setting [7]) of 9.8 ± 0.9 nM. Moreover, in series [1], the “λmax (E)” value stood at 339 nm and the “λmax (Z)” value is reported as 436 nm. For the same molecule, in series [2], the “PSS (E → Z)” value came to 96% and the “PSS (Z → E)” value was found to be 92%. In addition, in series [3], the t1/2 was 15.7 days.

Regarding `Cc1nn(CCSSCCN)c(C)c1N=Nc1ccc(CCNCC(O)c2ccc(O)c3c2OCC(=O)N3)cc1` (mixture of isomers) [Compound 3], the EC50 at human β2AR (setting [4]) was 7.2 ± 3 nM; on human β2AR (setting [7]) it was 17 ± 6.3 nM. For the same molecule, the Emax at human β2AR (setting [5]) is 85 ± 2%; on human β2AR (setting [6]), 78 ± 4%. In addition, the “λmax (E)” value in series [1] was found to be 337 nm. Also, the “λmax (Z)” value in series [1] was found to be 434 nm. For the same molecule, the “PSS (E → Z)” value in series [2] was found to be 95%. Moreover, the “PSS (Z → E)” value in series [2] is listed as 89%. The t1/2 in series [3] came out at 15.2 days.

In turn, `Cc1nn(CCN2C(=O)C=CC2=O)c(C)c1/N=N\c1ccc(CCNC[C@H](O)c2ccc(O)c(O)c2)cc1` [Compound Z-7] displayed an EC50 at human β2AR (Z-isomer, β2AR wild type) of 4300 nM.
